Drawing on patent publication US10962528B2, “Blue fluorescent protein monomers and uses thereof” (WISYS TECHNOLOGY FOUNDATION, INC., priority 2015, dated 2021), this text covers Kd and BV binding for 1 compound.

Molecules are shown by their SMILES.

Test [1] concerns the target T1, Sander vitreus (blue walleye) Sandercyanin fluorescent protein (SFP), wild type, SEQ ID NO:1 (recombinant without signal peptide SEQ ID NO:31) (Sander vitreus, UniProt A0A1D5B367).
T1 construct: apo monomer, tetramer with biliverdin
T1 sequence (A0A1D5B367 1-170): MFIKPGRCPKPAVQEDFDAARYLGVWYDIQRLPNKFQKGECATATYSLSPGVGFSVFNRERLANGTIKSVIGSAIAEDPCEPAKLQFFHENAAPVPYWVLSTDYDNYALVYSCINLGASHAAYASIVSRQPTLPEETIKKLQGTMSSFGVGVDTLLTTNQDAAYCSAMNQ
Kind of test: Binding of biliverdin to (apo) Sandercyanin by fluorescence titration. Here is the method:
FIGS. 11C-11D (C) Titration of apo-SFP (20 uM) with BV IXα measured at 675 nm with λex=375 nm (green) and 630 nm (red). (D) Photo-bleaching kinetics of Sandercyanin and free-biliverdin (BV).
Addition of the biliverdin to apo-protein results in red-shift in the fluorescence of Sandercyanin to near infra-red (NIR) region. Molar extinction coefficient of holoSFP measured in phosphate buffer of pH 7.4 at 375 nm and 630 nm are 21,000 M^−1 cm^−1 and 13,500 M^−1 cm^−1 respectively and quantum yield is determined to be 0.016. Further, fluorescence spectra is widely spread into the infrared region with minimal overlap with the excitation spectra. We examined the affinity of apoSFP towards BV using fluorescence and determined Kd of 6 μM.
Native SFP was extracted and purified from the mucus of Blue Walleye from Northwest Ontario by various chromatographic methods as described previously (Chi Li et al). A putative amino acid sequence of SFP was determined from crystal structure of the native protein, confirmed and corrected after whole genome sequencing of Blue Walleye. […]
All experiments were performed with purified SFP samples (apo and holo forms) at pH 7.5 and room temperature. UV-Visible absorbance spectra of native and recombinant SFP were recorded from 800 to 200 nm with ultraspec 2100 pro spectrophotometer from Amersham Biosciences. CD spectra were measured on JASCO J-815 Spectropolarimeter. […]

For test [2], the target named is Sander vitreus Sandercyanin fluorescent protein (SFP) variant SFP-V71E (mSFP1), SEQ ID NO:2 (Sander vitreus, UniProt A0A1D5B367, V52E). Briefly: Biliverdin binding of monomeric SFP variant. Here is the method:
(§1) All experiments were performed with purified SFP samples (apo and holo forms) at pH 7.5 and room temperature. UV-Visible absorbance spectra of native and recombinant SFP were recorded from 800 to 200 nm with ultraspec 2100 pro spectrophotometer from Amersham Biosciences. CD spectra were measured on JASCO J-815 Spectropolarimeter. Steady state fluorescence, excitation, binding and photobleaching studies were monitored on Horiba Jobin Yvon Fluoromax-4 fluorimeter. Data analysis were done using Origin6 and Origin8 software. Hydrogen was exchanged with Deuterium by increasing concentrations of D2O to a standard protein concentration. Deuteriated proteins were prepared in the same buffer, incubated for 15 minutes, and monitored for spectral properties.
(§2) All SFP variants were expressed using E. coli BL21*(DE3) cells. Briefly, each of the SFP monomer mutant genes in pET21a vector were transformed into BL21*(DE3) cells and selected on a LB agar plate containing ampicillin (100 μg/mL). For large scale expression, about 5 mL of the overnight grown primary culture was inoculated into 500 mL of LB medium containing 100 μg/mL ampicillin. Cells were grown at 37° C. until OD600 nm reached to 0.6-0.7. Then, cells were induced using 0.2 mM isopropyl-thiogalactoside (IPTG). Post-induction cells were grown at 20° C. for 20 hours. Thereafter, cells were harvested by centrifugation at 6000 rpm for 10 minutes. Bacterial cell pellet containing SFP as insoluble protein was resuspended in a lysis buffer (20 mM Tris-HCl, pH 7.5, 10 mM EDTA and 1% TritonX). […] Thus, refolded purified SFP was checked using an analytical gel filtration column for oligomerization state and biliverdin (BV) binding by UV-visible absorbance and fluorescence spectroscopy (FIGS. 1A-1D).
(§3) Characterization of monoSFP Variants—MonoSFP variants were characterized by size-exclusion chromatography during purification of the proteins. […] They have far-red to near infra-red fluorescence with large Stokes shift. […] To test this, we performed detergent (Triton X-100) assays with the monoSFPs and measured absorbance and fluorescence spectra. […]

Test [3] has as its target Sander vitreus Sandercyanin fluorescent protein (SFP) variant SFP-A137E, SEQ ID NO:4 (Sander vitreus, UniProt A0A1D5B367, A118E). Briefly: Biliverdin binding of monomeric SFP variant. Here is the method:
as §1, §2, §3

For test [4], the target named is Sander vitreus Sandercyanin fluorescent protein (SFP) variant SFP-L135E (mSFP2), SEQ ID NO:3 (Sander vitreus, UniProt A0A1D5B367, L116E). Briefly: Biliverdin binding of monomeric SFP variant. Here is the method:
as §1, §2, §3

Test [5] concerns the target T2, Sander vitreus Sandercyanin fluorescent protein (SFP) variant, Phe 55 to alanine (Sander vitreus, UniProt A0A1D5B367, F36A).
T2 construct: preparation not described for this mutant
Kind of test: Biliverdin binding of SFP mutant. As to conditions: Phe 55 to alanine mutation.

Sander vitreus Sandercyanin fluorescent protein (SFP) variant SFP-A137E, SEQ ID NO:4, sequence (A0A1D5B367 entry or part of it A118E): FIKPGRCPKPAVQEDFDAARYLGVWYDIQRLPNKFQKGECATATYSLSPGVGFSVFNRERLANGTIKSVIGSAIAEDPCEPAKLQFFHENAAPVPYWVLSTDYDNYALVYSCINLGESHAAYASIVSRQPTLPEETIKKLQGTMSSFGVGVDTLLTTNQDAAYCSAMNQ
Sander vitreus Sandercyanin fluorescent protein (SFP) variant SFP-V71E (mSFP1), SEQ ID NO:2, sequence (A0A1D5B367 entry or part of it V52E): as the sequence (A0A1D5B367 entry or part of it A118E) above, with V51E, E117A counted along it
T2 sequence (A0A1D5B367 entry or part of it F36A): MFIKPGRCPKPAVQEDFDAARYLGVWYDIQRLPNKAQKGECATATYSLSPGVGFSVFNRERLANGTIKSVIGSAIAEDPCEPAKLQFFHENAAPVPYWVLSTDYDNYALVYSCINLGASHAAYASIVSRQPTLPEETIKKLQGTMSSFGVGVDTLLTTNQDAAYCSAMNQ
Sander vitreus Sandercyanin fluorescent protein (SFP) variant SFP-L135E (mSFP2), SEQ ID NO:3, sequence (A0A1D5B367 entry or part of it L116E): as the sequence (A0A1D5B367 entry or part of it A118E) above, with L115E, E117A counted along it

With `C=CC1=C(C)/C(=C/C2=NC(=C\c3[nH]c(/C=C4\NC(=O)C(C)=C4C=C)c(C)c3CCC(=O)O)/C(CCC(=O)O)=C2C)NC1=O` [BV, Biliverdin IXα], the dissociation constant (Kd) is 5 to 6 µM in test [1] (Table 4, wild-type SFP (tetramer)); 6 µM in test [1] (affinity of apoSFP towards BV using fluorescence, pH 7.5, room temperature); 4 to 6 µM in test [2]; 3 to 5 µM in test [3]; 4 to 12 µM in test [4]. Further, the BV binding entry in test [5] was “abolished BV binding”.

As a reminder, the Kd is the free concentration of one partner at which half of the binding sites on the other are occupied at equilibrium, for simple one-to-one binding.
